Experiment [1] addresses T1, α1d-adrenoceptor (recombinant) (Homo sapiens, UniProt P25100).
T1 sequence (P25100 1-572): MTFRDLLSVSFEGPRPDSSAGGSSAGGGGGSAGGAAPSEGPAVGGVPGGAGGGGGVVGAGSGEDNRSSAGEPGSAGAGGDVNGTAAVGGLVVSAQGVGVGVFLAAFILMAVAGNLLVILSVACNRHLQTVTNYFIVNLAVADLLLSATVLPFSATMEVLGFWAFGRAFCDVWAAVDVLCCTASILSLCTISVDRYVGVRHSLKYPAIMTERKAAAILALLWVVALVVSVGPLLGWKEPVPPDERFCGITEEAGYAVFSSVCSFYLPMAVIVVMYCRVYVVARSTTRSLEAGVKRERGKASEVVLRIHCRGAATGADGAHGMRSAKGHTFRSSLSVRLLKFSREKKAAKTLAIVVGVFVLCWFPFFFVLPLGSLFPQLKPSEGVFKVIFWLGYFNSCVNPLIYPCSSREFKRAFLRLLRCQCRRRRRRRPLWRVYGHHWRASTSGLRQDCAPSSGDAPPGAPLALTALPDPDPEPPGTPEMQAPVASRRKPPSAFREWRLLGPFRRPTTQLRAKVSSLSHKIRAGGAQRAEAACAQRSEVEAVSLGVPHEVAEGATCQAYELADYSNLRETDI
The experiment can be described thus: Radioligand binding, cloned α1d-adrenoceptor ([3H]prazosin). Conditions: read-out: Affinity for recombinant α1d-adrenoceptor, cloned receptors (Ki). On the procedure:
(§1) Determination of affinity for cloned subtypes of α1-adrenoceptor subtypes was performed in membranes from cells transfected by electroporation with DNA expressing the genes encoding each α1-adrenoceptor subtype.
(§2) Non-specific binding was determined in the presence of 10 μM phentolamine.
(§3) Incubation was stopped by addition of ice-cold Tris buffer and rapid filtration through 0.2% polyethyleneimine-pretreated Schleicher & Schuell GF52 filters.
(§4) Data were expressed as mean Ki.

The target in experiment [2] is T2, 5HT1A-serotoninergic receptor (Homo sapiens, UniProt P08908).
T2 sequence (P08908 1-422): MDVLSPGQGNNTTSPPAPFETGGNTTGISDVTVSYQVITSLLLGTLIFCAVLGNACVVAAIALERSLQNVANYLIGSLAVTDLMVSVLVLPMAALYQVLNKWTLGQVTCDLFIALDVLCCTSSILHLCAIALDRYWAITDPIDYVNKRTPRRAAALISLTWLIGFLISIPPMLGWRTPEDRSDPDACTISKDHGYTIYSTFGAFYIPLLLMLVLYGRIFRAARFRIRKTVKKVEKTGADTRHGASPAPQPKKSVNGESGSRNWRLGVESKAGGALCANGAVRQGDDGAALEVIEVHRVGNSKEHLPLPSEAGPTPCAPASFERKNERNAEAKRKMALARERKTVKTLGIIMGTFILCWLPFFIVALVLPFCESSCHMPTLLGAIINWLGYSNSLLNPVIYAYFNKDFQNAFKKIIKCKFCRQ
The experiment is described as follows: Radioligand binding, cloned 5-HT1A-serotoninergic receptor in HeLa membranes ([3H]8-OH-DPAT). Also noted: expressed in transfected cells; host or cells: HeLa. Particulars: cloned human 5-HT1A receptor in HeLa membranes, mean Ki, read-out: Affinity for 5-HT1A receptor, cloned receptors (Ki). As for the experimental part:
HeLa cells were grown as monolayers in Dulbecco's Modified Eagle medium (DMEM) supplemented with 10% foetal calf serum and gentamicin (100 μg/mL), 5% CO2, at 37° C. The cells were detached from the growth flask at 95% confluence by a cell scraper and were lysed in ice-cold Tris-5-mM and EDTA-5-mM buffer (pH 7.4). The homogenates were centrifuged at 40000×g×20 minutes and the membranes were resuspended in a small volume of ice-cold buffer containing Tris 5 mM and EDTA 5 mM (pH 7.4), and immediately frozen and stored at −70° C. until use.
Non-specific binding was determined in the presence of 10 μM 5-HT. The incubation was stopped by addition of ice-cold Tris buffer and rapid filtration through 0.2% polyethyleneimine-pretreated Schleicher & Schuell filters.
as §4

The target in experiment [3] is T3, α1a-adrenoceptor (recombinant) (Homo sapiens, UniProt P35348).
T3 construct: expressed in transfected cells
T3 sequence (P35348 1-466): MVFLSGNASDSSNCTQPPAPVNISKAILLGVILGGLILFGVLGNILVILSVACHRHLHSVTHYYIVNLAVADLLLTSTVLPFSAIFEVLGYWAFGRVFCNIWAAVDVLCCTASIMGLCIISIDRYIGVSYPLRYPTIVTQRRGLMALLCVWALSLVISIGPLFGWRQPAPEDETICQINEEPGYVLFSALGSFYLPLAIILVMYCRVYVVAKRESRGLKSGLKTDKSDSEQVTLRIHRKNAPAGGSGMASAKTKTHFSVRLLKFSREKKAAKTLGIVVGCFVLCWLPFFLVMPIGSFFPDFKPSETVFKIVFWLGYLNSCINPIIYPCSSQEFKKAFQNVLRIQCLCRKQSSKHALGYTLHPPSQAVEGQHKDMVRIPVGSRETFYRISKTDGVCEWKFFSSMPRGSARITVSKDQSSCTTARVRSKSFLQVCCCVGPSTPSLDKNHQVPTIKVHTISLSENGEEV
The experiment is described as follows: Radioligand binding, cloned α1a-adrenoceptor ([3H]prazosin). Particulars: read-out: Affinity for recombinant α1a-adrenoceptor, cloned receptors (Ki). On the procedure:
as §1, §2, §3, §4

In experiment [4] the target is T4, α1L adrenoceptor (Oryctolagus cuniculus, UniProt O02824).
T4 sequence (O02824 1-466): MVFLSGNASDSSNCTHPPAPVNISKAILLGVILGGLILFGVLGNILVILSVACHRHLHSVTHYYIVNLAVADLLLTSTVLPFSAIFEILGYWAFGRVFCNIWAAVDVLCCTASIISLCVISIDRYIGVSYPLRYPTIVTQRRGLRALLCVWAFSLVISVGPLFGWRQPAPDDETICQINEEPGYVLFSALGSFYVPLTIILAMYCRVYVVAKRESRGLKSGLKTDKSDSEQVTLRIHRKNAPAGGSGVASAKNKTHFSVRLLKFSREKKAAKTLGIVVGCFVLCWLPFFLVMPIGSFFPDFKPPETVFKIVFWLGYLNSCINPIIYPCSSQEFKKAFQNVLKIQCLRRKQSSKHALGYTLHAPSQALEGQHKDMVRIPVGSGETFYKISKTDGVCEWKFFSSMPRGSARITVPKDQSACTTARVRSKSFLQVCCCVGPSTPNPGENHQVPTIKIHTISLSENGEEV
The experiment can be described thus: Functional antagonism of noradrenaline-induced contractions of rabbit aorta pretreated with chloroethylclonidine. In kind it is biochemical. Particulars: NA-induced contractions of rabbit aorta pretreated with chloroethylclonidine. As for the experimental part:
Adult male New Zealand rabbits were sacrificed by cervical dislocation. The aorta was removed, placed in Krebs-Henseleit buffer and dissected free of adhering tissue. […] Desmethylimipramine (0.1 μm) and corticosterone (1 μM) to block neuronal and extraneuronal uptake of NA, (±)-propranol (1 μM) to block β adrenoceptors and yohimbine (0.1 μM) to block α2 adrenoceptors, were added to the buffer.
The preparations were allowed to equilibrate for 60 minutes and then primed every thirty minutes with 10 μM NA for three times. The aortic rings were then incubated with the alkylating agent chloroethylclonidine (5×10^−5 M) for 30 minutes and then washed extensively three times (in 0.5 hours) before constructing the NA-concentration/response curve. After washout of NA and re-equilibration of the tissue (45 minutes), the drug to be tested was added and, after 30 minutes, a second NA-cumulative-concentration/response curve constructed.
Each antagonist concentration was tested using 2-3 aortic rings from different rabbits.
Dose ratios (i.e., the ratio between the concentrations of NA required to produce half-maximal response in the presence and in the absence of the test antagonist) were calculated for each concentration of the compounds. The logarithm of these dose ratio-1 was plotted against the logarithm of the compound concentrations (Schild plot) to evaluate the affinity constant Kb.
When only one or two concentrations of the test compounds were utilised, the apparent Kb value was calculated using the formula: Kb=[B]/(DOSE RATIO-1), where B is the antagonist concentration.

The target of experiment [5] is T5, α1b-adrenoceptor (recombinant) (Homo sapiens, UniProt P35368).
T5 construct: expressed in transfected cells
T5 sequence (P35368 1-520): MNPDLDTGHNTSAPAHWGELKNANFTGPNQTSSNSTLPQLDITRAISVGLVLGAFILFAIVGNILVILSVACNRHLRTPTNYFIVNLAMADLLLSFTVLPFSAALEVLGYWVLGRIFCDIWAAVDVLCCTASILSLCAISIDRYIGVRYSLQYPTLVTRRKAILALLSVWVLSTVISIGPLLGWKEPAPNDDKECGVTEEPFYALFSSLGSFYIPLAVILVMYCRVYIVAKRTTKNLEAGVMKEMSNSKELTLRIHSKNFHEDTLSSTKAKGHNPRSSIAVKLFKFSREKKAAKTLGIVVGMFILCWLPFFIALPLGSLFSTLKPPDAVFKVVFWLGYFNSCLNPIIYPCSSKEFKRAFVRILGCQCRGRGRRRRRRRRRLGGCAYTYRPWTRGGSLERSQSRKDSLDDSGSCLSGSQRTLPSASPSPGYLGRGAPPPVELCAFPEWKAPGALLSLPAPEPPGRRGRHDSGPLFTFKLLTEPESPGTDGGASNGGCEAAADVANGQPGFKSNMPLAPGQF
The experiment can be described thus: Radioligand binding, cloned α1b-adrenoceptor ([3H]prazosin). Conditions: read-out: Affinity for recombinant α1b-adrenoceptor, cloned receptors (Ki). On the procedure:
as §1, §2, §3, §4

For orientation: Ki means the dissociation constant of the complex between target and ligand, obtained from inhibition or displacement. As for `COc1ccc(Cl)cc1N1CCN(CCCNC(=O)c2cccc3c(=O)c(C)c(C#N)oc23)CC1` [Example 11, 8-{3-[4-(5-Chloro-2-methoxyphenyl)-1-piperazinyl]propylcarbamoyl}-2-cyano-3-methyl-4-oxo-4H-1-benzopyran], the Ki in experiment [1] came out at 2.72 nM; in experiment [2], 24.4 nM; in experiment [3] it was 0.38 nM; in experiment [5], 0.78 nM. Further, in experiment [4], the “Functional affinity for the α1L adrenoceptor subtype, pKb” value (from here on “Functional affinity”) is on record as 8.45.

`Cc1c(C(N)=O)oc2c(C(=O)NCCCN3CCN(c4cc(F)ccc4OCC(F)(F)F)CC3)cccc2c1=O` [Example 8, 2-Carbamoyl-8-<3-{4-[5-fluoro-2-(2,2,2-trifluoroethoxy)phenyl]-1-piperazinyl}-propylcarbamoyl>-3-methyl-4-oxo-4H-1-benzopyran]: the Ki in experiment [1] came to 3.02 nM; in experiment [2], 39.5 nM; in experiment [3], 0.144 nM; in experiment [5] it was 9.91 nM. Moreover, the “Functional affinity” value in experiment [4] amounted to 9.

As to `COc1ccc(Cl)cc1N1CCN(CCCNC(=O)c2cccc3c(=O)c(C)c(C(=O)N(C)C)oc23)CC1` [Example 6, 8-{3-[4-(5-Chloro-2-methoxyphenyl)-1-piperazinyl]propylcarbamoyl}-3-methyl-2-dimethylcarbamoyl-4-oxo-4H-1-benzopyran], the Ki in experiment [1] stood at 3.83 nM; in experiment [2], 68.4 nM; in experiment [3], 0.23 nM; in experiment [5], 3.56 nM. Also, the “Functional affinity” value in experiment [4] stood at 8.55.

On to `COc1cc2nc(N3CCN(C(=O)C4CCCO4)CC3)nc(N)c2cc1OC` (stereo not shown) [terazosin, reference compound], for which, in experiment [1], the Ki is 2.4 nM. In addition, in experiment [4], the “Functional affinity” value amounted to 7.25.

Consider `Cc1c(-c2ccccc2)oc2c(C(=O)NCCCN3CCN(c4ccc(F)cc4OCC(F)(F)F)CC3)cccc2c1=O` [Example 19, 8-<3-{4-[4-Fluoro-2-(2,2,2-trifluoroethoxy)phenyl]-1-piperazinyl}propylcarbamoyl>-3-methyl-4-oxo-2-phenyl-4H-1-benzopyran], for which the Ki is 4.79 nM in experiment [1], 22.4 nM in experiment [2], 0.136 nM in experiment [3] and 2.61 nM in experiment [5]. Moreover, in experiment [4], the “Functional affinity” value was found to be 8.72.

On to `COc1ccc(C(F)(F)F)cc1N1CCN(CCCNC(=O)c2cccc3c(=O)c(C)c(-c4ccccc4)oc23)CC1` [Example 17, 8-{3-[4-(2-Methoxy-5-trifluoromethylphenyl)-1-piperazinyl]propylcarbamoyl}-3-methyl-4-oxo-2-phenyl-4H-1-benzopyran], for which the Ki turned out to be 13.1 nM in experiment [1], 1.6 nM in experiment [3] and 9.42 nM in experiment [5]. The “Functional affinity” value in experiment [4] came out at 8.03.

On to `COc1ccc(Cl)cc1N1CCN(CCCNC(=O)c2cccc3c(=O)c(C)c(NC(=O)OC(C)(C)C)oc23)CC1.O` [Example 3, 2-(1,1-Dimethylethoxycarbonylamino)-8-{3-[4-(5-chloro-2-methoxyphenyl)-1-piperazinyl]propylcarbamoyl}-3-methyl-4-oxo-4H-1-benzopyran monohydrate], for which the Ki turned out to be 0.45 nM in experiment [1], 81.9 nM in experiment [2], 0.2 nM in experiment [3] and 0.32 nM in experiment [5]. Further, in experiment [4], the “Functional affinity” value came out at 8.43.

For the origin of these results see US6403594B1, “Benzopyran derivatives” (Recordati, S.A. Chemical and Pharmaceutical Company, priority 1999, dated 2002).
